Consider nine molecules from PubChem BioAssay (NCI).

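Compound exposure: 48 hours, 5 concentrations, 96-well plates. Here, GI50 denotes the concentration required for 50% inhibition of growth. TGI: total growth inhibition.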 A value given as a limit tells only on which side of the number the result lay.

Experiment in all cases: growth of human tumour cells (NCI), 48 h
Experiment [1] deals with MOLT-4 leukemia.
For experiment [2], the system named is HL-60(TB) leukemia.
The test system of experiment [3] is SNB-75 CNS.
Experiment [4] deals with RXF 393 renal.
The test system of experiment [5] is SK-MEL-2 melanoma.
Experiment [6] has as its system OVCAR-5 ovarian.
In experiment [7] the test system is NCI-H460 lung.
Experiment [8] deals with EKVX NSCLC.
Experiment [9] has as its system HOP-62 NSCLC.
In experiment [10] the test system is HCT-15 colon.

`C[C@H]1CCC/C=C/[C@@H]2C[C@H](O)C[C@H]2[C@H](O)[C@@H](S(=O)CCN(C)C)CC(=O)O1` (stereo partly specified): the GI50 was 0.349 µM in experiment [1]; 0.303 µM in [2]; 0.0332 µM in experiment [3]; 0.0542 µM in experiment [4]; 0.223 µM in experiment [5]; 0.367 µM in experiment [6]. Moreover, the GI50 was 0.351 µM in experiment [7], 0.384 µM in experiment [8], 0.458 µM in [9] and 0.363 µM in experiment [10]. Also, the TGI in experiment [2] was more than 100 µM; in experiment [4] it was more than 100 µM; in experiment [6], more than 100 µM; in [7] it was more than 100 µM; in experiment [9] it was more than 63.4 µM; in [10] it was more than 57.9 µM.
In the case of `CC1(C)OCC(CO)(Nc2nc(N3CC3)nc(N3CC3)n2)CO1`, the TGI is 19 µM in experiment [1]; 25.3 µM in [2]; 33.1 µM in [3]; 28.6 µM in experiment [4]; 40 µM in [5]; 50.3 µM in experiment [6]. The TGI in experiment [7] is 29 µM; in experiment [8], 90.8 µM; in experiment [9], 30.9 µM; in experiment [10], 45.8 µM.
Turning to `O=C1C=Cc2ccccc2/C1=C/c1[nH]c(=O)[nH]c1O`, the GI50 in [1] was 4.19 µM; in experiment [2], 3.44 µM; in [3] it was 2.14 µM; in [4] it was 2.78 µM; in experiment [5] it was 2.97 µM; in experiment [6] it was 42.8 µM. Also, the GI50 was 9.71 µM in experiment [7], 2.46 µM in experiment [8], 7.5 µM in [9] and 7.44 µM in [10]. Besides, the TGI was more than 100 µM in experiment [1]; more than 100 µM in experiment [2]; 7.44 µM in [3]; 10.2 µM in experiment [4]; 8.71 µM in experiment [5]; more than 100 µM in experiment [6]. Besides, the TGI was 30.9 µM in experiment [7], 25.4 µM in experiment [8], 35 µM in [9] and more than 100 µM in [10].
Regarding `CC1=Cc2cc3[n-]c(cc4nc(cc5[n-]c(cc1n2)cc5C)C(C)=C4CCC(=O)O)c(CCC(=O)O)c3C.[Pd+2]`, the GI50 was 10.1 µM in experiment [1]; 7.21 µM in experiment [2]; 6.8 µM in [3]; 17.9 µM in experiment [4]; 18.7 µM in experiment [5]; 41.6 µM in [6]. Moreover, the GI50 is 33.5 µM in experiment [7], more than 28.9 µM in experiment [8], 17.7 µM in experiment [9] and 18.4 µM in experiment [10]. Further, the TGI in [1] is 27.5 µM; in [2], 14.2 µM; in experiment [3], 29.9 µM; in experiment [4] it was more than 37.9 µM; in experiment [5], 44 µM; in [6], 58.2 µM. Besides, the TGI is 59.2 µM in experiment [7], more than 54.6 µM in experiment [8], 34.3 µM in [9] and 42.5 µM in experiment [10].
For the molecule `C=C1CC[C@@H]2C(C)(C)CCC[C@@]2(C)[C@@H]1Cc1cc(O)ccc1O`, the TGI in experiment [1] was 9.07 µM; in [2], 4.67 µM; in experiment [3] it was 7.14 µM; in experiment [4], 5.18 µM; in experiment [5] it was 6.39 µM; in experiment [6], 31.3 µM. Further, the TGI in [7] was 33.4 µM; in experiment [8], 29 µM; in [9] it was 25.8 µM; in [10], 12.3 µM.
Take `O=[N+]([O-])C1C2C=CC(C2)[C@H]1c1ccccc1Cl` (stereo partly specified): the TGI in experiment [1] is more than 100 µM; in experiment [2], more than 92.5 µM; in experiment [3], 60.7 µM; in [4], more than 100 µM; in experiment [5], more than 100 µM; in [6], more than 88.2 µM. The TGI in experiment [7] was more than 100 µM; in experiment [8], more than 100 µM; in [9], more than 10 µM; in [10] it was more than 100 µM.
For the molecule `CN(C)CCCNC(=O)c1cc(NC(=O)c2cc(NC(=O)c3cc(NC(=O)CCc4c[nH]c5ccccc45)cn3C)cn2C)cn1C`, the GI50 in experiment [1], in experiment [2], in experiment [3], in experiment [4], in experiment [5] and in experiment [6] was more than 100 µM in each case. Also, the GI50 in experiment [7], in experiment [8], in [9] and in [10] was more than 100 µM each time. For the same molecule, the TGI in experiment [1], in experiment [2], in experiment [3], in [4], in experiment [5] and in experiment [6] was more than 100 µM throughout. For the same molecule, the TGI in experiment [7], in [8], in [9] and in experiment [10] was more than 100 µM throughout.
As for `COC(=O)c1nc(NC#N)[nH]c(=O)c1C`, the TGI in experiment [1] was more than 100 µM; in experiment [2] it was more than 100 µM; in experiment [3], more than 95.4 µM; in experiment [4], more than 100 µM; in [5], more than 100 µM; in experiment [6], more than 100 µM. Moreover, the TGI in experiment [7], in experiment [8], in [9] and in [10] was more than 100 µM throughout.
As for `O=C(C(Br)Br)C(Br)C(Br)c1ccccc1` (stereo unspecified), the GI50 in experiment [1] is 1.82 µM; in experiment [2] it was 5.82 µM; in [3], 19.9 µM; in [4], 1.7 µM; in experiment [5], 13.7 µM; in experiment [6] it was 6.6 µM. Besides, the GI50 in [7] is 24.5 µM; in [8], 14.5 µM; in [9], 2.74 µM; in [10], 1.96 µM. Also, the TGI in experiment [1] is 4.76 µM; in experiment [2], 25.7 µM; in experiment [3], 53.4 µM; in [4], 3.45 µM; in [5] it was 35.7 µM; in [6] it was 22.2 µM. In addition, the TGI stood at 66.4 µM in experiment [7], 43.9 µM in experiment [8], 8.1 µM in experiment [9] and 4.38 µM in experiment [10].
